In brackets after ≈: the same amount, converted by molar mass.
Experiments:
[1] = system: Klebsiella pneumoniae; test: Antibacterial activity against Klebsiella pneumoniae assessed as bacterial growth inhibition; assay type: functional
[2] = system: Escherichia coli; test: Antibacterial activity against Escherichia coli assessed as bacterial growth inhibition; assay type: functional
[3] = system: Mycobacterium tuberculosis; test: Antibacterial activity against Mycobacterium tuberculosis H37Rv ATCC 27294 assessed as bacterial growth inhibition by radiometry method; assay type: functional
[4] = system: Klebsiella pneumoniae; test: Antibacterial activity against Klebsiella pneumoniae Delta-217 assessed as bacterial growth inhibition incubated for 16 hrs by broth dilution method; assay type: functional
[5] = system: Salmonella typhimurium; test: Antibacterial activity against Salmonella typhimurium Delta-119 assessed as bacterial growth inhibition incubated for 16 hrs by broth dilution method; assay type: functional, Salmonella enterica subsp. enterica serovar Typhimurium; conditions: Salmonella enterica
[6] = system: Proteus mirabilis; test: Antibacterial activity against Proteus mirabilis Delta-89 assessed as bacterial growth inhibition incubated for 16 hrs by broth dilution method; assay type: functional
[7] = system: L5178Y; test: Anticancer activity against mouse L5178Y cells assessed as cell growth inhibition incubated for 24 hrs by MTT assay; assay type: functional, cell-based
[8] = system: Streptococcus mutans; test: Antibacterial activity against Streptococcus mutans assessed as bacterial growth inhibition; assay type: functional
[9] = system: Escherichia coli; test: Antibacterial activity against Escherichia coli ATCC 25922 assessed as bacterial growth inhibition; assay type: functional
[10] = Inhibition of Escherichia coli LeuRS using Escherichia coli tRNA as substrate incubated for 20 mins in presence of 14C-leucine/ATP
[11] = Binding affinity to Candida glabrata beta-carbonic anhydrase assessed as inhibition constant preincubated for 15 mins by bromothymol blue staining based assay; design: species or system Nakaseomyces glabratus
[12] = Binding affinity to Cryptococcus neoformans beta-carbonic anhydrase assessed as inhibition constant preincubated for 15 mins by bromothymol blue staining based assay
[13] = Cytotoxicity against HEK293T cells assessed as reduction in cell viability incubated for 48 hrs by MTT assay; assay type: toxicity, cell-based, HEK-293T; conditions: human
[14] = system: Mycobacterium tuberculosis; test: Antibacterial activity against Mycobacterium tuberculosis assessed as bacterial growth inhibition; assay type: functional
[15] = target: cAMP and cAMP-inhibited cGMP 3',5'-cyclic phosphodiesterase 10A (Homo sapiens, UniProt Q9Y233); test: Inhibition of PDE10A (unknown origin)
[16] = system: Staphylococcus aureus; test: Antibacterial activity against healthcare-associated Methicillin-resistant Staphylococcus aureus assessed as bacterial growth inhibition; assay type: functional
[17] = Lipophilicity, log P of the compound; assay type: physicochemical; conditions: octanol/water
[18] = system: Staphylococcus aureus; test: Antibacterial activity against Staphylococcus aureus ATCC 43300 assessed as bacterial growth inhibition incubated for 1 hr by plate colony counting method; assay type: functional
[19] = system: Mycobacterium tuberculosis; test: Antibacterial activity against Mycobacterium tuberculosis H37Rv ATCC 25618 assessed as bacterial growth inhibition incubated for 5 days by fluorescence based assay; assay type: functional, organism-based; conditions: H37Rv ATCC 25618, 120 h
[20] = system: HepG2; test: Cytotoxicity against human HepG2 cells assessed as cell growth inhibition incubated for 72 hrs by Cell Titer Glo assay; assay type: functional, cell-based; conditions: HepG2, 72 h
[21] = system: Verticillium dahliae; test: Antifungal activity against Verticillium dahliae assessed as fungal growth inhibition at 50 ug incubated for 96 hrs by disk diffusion method; assay type: functional; conditions: read-out: IZ
[22] = system: Aspergillus niger; test: Antifungal activity against Aspergillus niger assessed as fungal growth inhibition at 50 ug incubated for 96 hrs by disk diffusion method; assay type: functional; conditions: read-out: IZ
[23] = system: Pseudomonas aeruginosa; test: Antibacterial activity against Pseudomonas aeruginosa assessed as bacterial growth inhibition by broth microdilution method; assay type: functional
[24] = system: Prototheca zopfii; test: Antimicrobial activity against Prototheca zopfii assessed as microbial growth inhibition by CLSI protocol based assay; assay type: functional
[25] = system: Caco-2; test: Anticancer activity against human Caco-2 cells assessed as cell growth inhibition by cytometry; assay type: functional, cell-based
[26] = Anticancer activity against human 1321N1 cells assessed as cell growth inhibition by dynamic assay; assay type: functional, cell-based
[27] = system: Saccharomyces cerevisiae; test: Antifungal activity against Saccharomyces cerevisiae assessed as fungal growth inhibition at 100 ug; assay type: functional; conditions: read-out: IZ
[28] = system: Aspergillus niger; test: Antifungal activity against Aspergillus niger assessed as fungal growth inhibition at 25 ug incubated for 48 hrs by disk diffusion method; assay type: functional; conditions: read-out: IZ
[29] = system: Candida albicans; test: Antifungal activity against Candida albicans assessed as fungal growth inhibition at 25 ug incubated for 48 hrs by disk diffusion method; assay type: functional; conditions: read-out: IZ
[30] = system: THP-1; test: Antiinflammatory activity against human THP-1 cells assessed as inhibition of LPS-stimulated IL-1beta release measured after 1 hr by ELISA; assay type: functional, cell-based; conditions: THP-1, 1 h

Chain of cAMP and cAMP-inhibited cGMP 3',5'-cyclic phosphodiesterase 10A (Q9Y233 whole entry): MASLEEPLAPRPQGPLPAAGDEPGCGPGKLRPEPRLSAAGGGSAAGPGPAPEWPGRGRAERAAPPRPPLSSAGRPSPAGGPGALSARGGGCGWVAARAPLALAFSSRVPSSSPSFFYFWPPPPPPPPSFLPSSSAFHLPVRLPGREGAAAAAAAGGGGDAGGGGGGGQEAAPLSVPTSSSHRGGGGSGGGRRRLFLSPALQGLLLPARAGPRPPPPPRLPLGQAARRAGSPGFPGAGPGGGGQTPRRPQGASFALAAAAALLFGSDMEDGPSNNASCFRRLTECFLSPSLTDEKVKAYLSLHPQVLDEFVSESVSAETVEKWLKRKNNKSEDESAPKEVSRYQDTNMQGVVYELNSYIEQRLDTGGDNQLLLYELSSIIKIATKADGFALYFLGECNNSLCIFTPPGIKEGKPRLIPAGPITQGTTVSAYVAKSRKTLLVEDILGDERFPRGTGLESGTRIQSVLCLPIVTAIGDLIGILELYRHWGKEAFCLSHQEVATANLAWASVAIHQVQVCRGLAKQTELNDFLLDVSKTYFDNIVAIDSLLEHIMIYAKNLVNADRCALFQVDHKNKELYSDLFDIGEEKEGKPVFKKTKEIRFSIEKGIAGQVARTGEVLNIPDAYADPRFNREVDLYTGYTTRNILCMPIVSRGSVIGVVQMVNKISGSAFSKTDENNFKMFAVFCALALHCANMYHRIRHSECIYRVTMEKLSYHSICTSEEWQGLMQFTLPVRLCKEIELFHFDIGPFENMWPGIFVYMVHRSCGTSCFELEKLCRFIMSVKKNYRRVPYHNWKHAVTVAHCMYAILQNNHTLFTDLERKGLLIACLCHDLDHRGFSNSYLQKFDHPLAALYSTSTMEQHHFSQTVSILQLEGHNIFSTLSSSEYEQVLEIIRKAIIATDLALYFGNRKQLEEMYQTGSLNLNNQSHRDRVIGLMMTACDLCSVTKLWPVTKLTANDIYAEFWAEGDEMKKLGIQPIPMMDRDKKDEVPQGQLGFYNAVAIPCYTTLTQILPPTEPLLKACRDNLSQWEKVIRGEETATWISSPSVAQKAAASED

Question: Which MIC [1] does the source give for `Cc1ccc(S(=O)(=O)N2N=Cc3ccccc3B2O)cc1` here?
Answer: The MIC was 3.1 µg/mL (≈ 10.3 µM).

Question: And the MIC [2]?
Answer: The MIC was 25 µg/mL (≈ 83.3 µM).

Question: For `O=C1Nc2ccccc2B(O)N1c1ccccc1`, which MIC [3] is on record?
Answer: The MIC was 8 µg/mL (≈ 33.6 µM).

Question: Which MIC [4] does the source give for `CCCS(=O)(=O)N1N=Cc2sc(C)cc2B1O` here?
Answer: Its MIC is 0.31 µg/mL (≈ 1.14 µM).

Question: What about the MIC [5] of the same compound?
Answer: The MIC was 0.19 µg/mL (≈ 0.698 µM).

Question: With `Cc1ccc2c(c1)C=NN(S(=O)(=O)c1ccc(N)cc1Cl)B2O` as the compound, how does the MIC [4] read?
Answer: The MIC was 0.39 µg/mL (≈ 1.12 µM).

Question: And the MIC [6]?
Answer: The MIC was 0.78 µg/mL (≈ 2.23 µM).

Question: With `O=C1C[NH2+][B-](c2ccccc2)(c2ccccc2)O1` as the compound, how does the IC50 [7] read?
Answer: The IC50 was 22500 nM.

Question: With `CC1NB(c2ccccc2)OC1c1ccccc1` (stereo unspecified) as the compound, how does the MIC [8] read?
Answer: Its MIC is 1300 µM (≈ 308 µg/mL).

Question: With `CCCCB1OC(c2ccccc2)C(C)N1C` (stereo unspecified) as the compound, how does the MIC [8] read?
Answer: The MIC was 500 µM (≈ 116 µg/mL).

Question: For `Cl.NC[C@H]1OB(O)c2c(OCCCO)cccc21`, which MIC [9] is on record?
Answer: Its MIC is 1 µg/mL.

Question: What about the IC50 [10] of the same compound?
Answer: The IC50 was 310 nM.

Question: For `O=C(Nc1ccc(F)cc1)Nc1ccc2c(c1)B(O)OC2`, which Ki [11] is on record?
Answer: Its Ki is 75 nM.

Question: What about the Ki [12] of the same compound?
Answer: The Ki was 78 nM.

Question: With `OB1c2sccc2C=NN1Cc1ccccc1` as the compound, how does the CC50 at 48 h [13] read?
Answer: Its CC50 at 48 h is over 100000 nM.

Question: Which IC90 [14] does the source give for `Cc1ccc2c(c1-c1ccccc1C(N)=O)B(O)OC2` here?
Answer: The IC90 was 1800 nM.

Question: With `CN(C(=O)c1nc(-c2cccnc2)cs1)c1ccc(OCB2C=Cc3ccccc3N2)cc1` as the compound, how does the IC50 [15] read?
Answer: Its IC50 is 330 nM.

Question: Which results are given for `OCc1ccc2c(c1)C=CB(c1ccc(O)c(C34CC5CC(CC(C5)C3)C4)c1)N2`?
Answer: MIC [16]: 64 µM (≈ 24.7 µg/mL); logP [17]: 0.12

Question: Which IC90 [14] does the source give for `N#Cc1ccccc1-c1cccc2c1B(O)OC2` here?
Answer: The IC90 was 30000 nM.

Question: With `CN1C(=O)C2(Cc3ccccc3B(O)O2)c2ccccc21` (stereo unspecified) as the compound, how does the logP [17] read?
Answer: Its logP is 3.52.

Question: With `Cc1cccc(N2B(c3cccc([N+](=O)[O-])c3)ON=C2c2ccccc2)c1` as the compound, how does the MIC [18] read?
Answer: Its MIC is 0.06 µM (≈ 0.0214 µg/mL).

Question: What does the source list for `CS(=O)(=O)N1N=Cc2ccc(Oc3ccc(C(F)(F)F)cc3/C=N/O)cc2B1O`?
Answer: IC50 [19]: 110 nM; IC50 [20]: > 100000 nM

Question: What does the source list for `COc1ccc2c(c1)C=NN(C(N)=S)B2O`?
Answer: zone of inhibition at 50 µg/disc [21]: 6.4 mm; zone of inhibition at 50 µg/disc [22]: 2.3 mm

Question: With `Clc1ccc(-c2noc3c2COB(c2cccc(Br)c2)OC3)cc1` as the compound, how does the MIC [23] read?
Answer: The MIC was 25 µg/mL (≈ 61.8 µM).

Question: Which MIC [24] does the source give for `COc1ccc([N+]2=C(c3ccccc3)C=C(C(Cl)(Cl)Cl)O[B-]2(F)F)cc1` here?
Answer: Its MIC is 0.3 µg/mL (≈ 0.717 µM).

Question: Which results are given for `Cc1ccc(S(=O)(=O)N2N=Cc3cc(C)oc3B2O)cc1`?
Answer: MIC [4]: 1.56 µg/mL (≈ 5.13 µM); MIC [5]: 3.12 µg/mL (≈ 10.3 µM)

Question: What does the source list for `CC(C)C1=[N+](Cc2cccc(C(F)(F)F)c2)[B-](c2ccccc2)(c2ccccc2)OC1=O`?
Answer: IC50 [25]: 76000 nM; IC50 [26]: 268000 nM

Question: With `CCNC(=S)N1N=Cc2ccccc2B1O` as the compound, how does the zone of inhibition at 100 µg/disc [27] read?
Answer: Its zone of inhibition at 100 µg/disc is 4.3 mm.

Question: For `C=CCNC(=S)N1N=Cc2ccccc2B1O`, which zone of inhibition at 25 µg/disc [28] is on record?
Answer: The zone of inhibition at 25 µg/disc was 7 mm.

Question: What about the zone of inhibition at 25 µg/disc [29] of the same compound?
Answer: Its zone of inhibition at 25 µg/disc is 9 mm.

Question: For `CC(=O)C1=C(C(Cl)(Cl)Cl)N[B-](c2ccccc2)(c2ccccc2)[O+]=C1C`, which IC50 [30] is on record?
Answer: The IC50 was 574 nM.

— ChEMBL document CHEMBL5104111, “Boron-Containing heterocycles as promising pharmacological agents” (Bioorg Med Chem, 2022)
